According to PMC7256776, “Pharmacokinetic Comparisons of Eight Active Components from Raw Farfarae Flos and Honey-Processed Farfarae Flos after Oral Administration in Rats by UHPLC-MS/MS Approaches” (Journal of Analytical Methods in Chemistry, 2020):
Where two headings read alike, the source gives them in different places.

Assay: Pharmacokinetic study in rats after oral administration of R-FF or H-FF extract (UHPLC-MS/MS of serum)
Assay type: in vivo, SD rats
Settings: for eliminate rate (judged from t1/2 and MRT values): R-FF group; for double peak phenomena in serum concentration-time curve: both R-FF and H-FF, Figure 3; for AUC(0-inf) / AUC(0-t) / Cmax / Tmax / half-life / MRT last: male, SD, rat, serum, po, 140 g/kg; for AUC(0-inf) / AUC(0-t) / Cmax / Tmax / half-life / MRT last / t 1/2 / C max / MRT0–t / T max: mean ± SD; for AUC(0-inf) / AUC(0-t) / Cmax / Tmax / half-life / t 1/2 / C max / MRT0–t / T max: n = 6; for MRT last: n = 6, read-out: MRT0–t
Protocol: MS analysis was performed on a TSQ Quantis™ triple quadrupole mass spectrometer (Thermo Scientific™, Vanquish™, (Waltham, MA, USA)) equipped with an autosampler. Chromatographic separation was performed on a Thermo Hypersil GOLD C18 column (100 mm × 2.1 mm, 1.9 µm particles). The column temperature was maintained at 30°C. Through the Thermo Scientific™, TraceFinder™ software was acquired and processed. The mobile phase was composed of acetonitrile (A) and water (both containing 0.3% formic acid) (B) with a gradient elution program (0–5 min:10–19% acetonitrile, 5–8 min:19–25% acetonitrile, 8–28 min:25%–100% acetonitrile, 28–32 min: 100%–10%, and 32–34 min: 10%–10%). The system was re-equilibrated in the initial mobile phase 4.0 min before the next injection. The flow rate was set at 0.3 mL/min, and the injection volume was set as 2 μL.
The analytes were detected on a TSQ Quantis triple quadrupole mass spectrometer by selected reaction monitoring (SRM) equipped with a heated electrospray ionization source operated in negative ion modes. The parameters were set as follows: the sheath gas and the aux gas were set at 30 Arb and 10 Arb, respectively; the ion transfer tube temperature was maintained at 325°C; and the vaporizer temperature was set to 350°C.
5 μL of IS solution containing chloramphenicol 100 ng/ml and 795 μL of acetonitrile were added to a 100 μL drug serum sample for sedimentation of proteins. Subsequently, the 1.5 mL centrifuge tube containing mixture was vortexed for 5 min. After that, the mixture was centrifuged at 12,000 rpm for 20 min at 4°C. Finally, the supernatant fluid was removed and evaporated to dryness under a stream of nitrogen at 35°C. The dried residue was redissolved by 100 μL 50% methanol aqueous solution. And the supernatant prepared above was filtered through 0.22 μm membranes transferred to vials by the UHPLC-MS/MS system for data analysis.
12 adult male SD rats (weighing 250∼300 g) were used in pharmacokinetics experiments and randomly assigned to two groups: R-FF group and H-FF group. Before being administered R-FF or H-FF extract, all the rats fasted but with free access to water for 12 h. The R-FF or H-FF extract was orally administered to the rats (140 g/kg body weight). Aliquots of 0.3 ml blood samples were collected in 1.5 ml heparin lithium-anticoagulant tubes at (0.083, 0.166, 0.333, 0.5, 1, 2, 4, 6, 8, 12, 24, 36, and 48 h) via the postorbital venous plexus veins from each rat after oral administration. The blood sample was immediately centrifuged at 3500 rpm for 5 min, and the supernatant 100 μL serum was transferred into a new centrifuge tube and stored at −80°C until analysis.

Compound	eliminate rate (judged from t1/2 and MRT values)	double peak phenomena in serum concentration-time curve	AUC(0-inf) (oral H-FF extract 140 g/kg)	AUC(0-t) (oral H-FF extract 140 g/kg)	Cmax (oral H-FF extract 140 g/kg)	Tmax (oral H-FF extract 140 g/kg)	half-life (oral H-FF extract 140 g/kg)	MRT last (oral H-FF extract 140 g/kg)	AUC(0-inf) (oral R-FF extract 140 g/kg)	AUC(0-t) (oral R-FF extract 140 g/kg)	Cmax (oral R-FF extract 140 g/kg)	Tmax (oral R-FF extract 140 g/kg)	half-life (oral R-FF extract 140 g/kg)	MRT last (oral R-FF extract 140 g/kg)	t 1/2 (oral R-FF extract 140 g/kg)	change of MRT0–t in H-FF group compared to R-FF group (oral, H-FF vs R-FF)	also measured
COc1cc(/C=C/C(=O)O)ccc1O [Ferulic acid, ferulic acid]	fast eliminate rate	obvious double peak phenomena	2250 ± 442 ng·h/mL	1760 ± 224 ng·h/mL	380 ± 5.89 ng/mL	0.33 h	3.31 ± 0.68 h	3.33 ± 0.11 h	2140 ± 196 ng·h/mL	853 ± 29.4 ng·h/mL	253 ± 25.7 ng/mL	0.33 h	5.07 ± 1.87 h	4.21 ± 0.11 h			
O=C(C=Cc1ccc(O)c(O)c1)OC1CC(O)(C(=O)O)CC(O)C1OC(=O)C=Cc1ccc(O)c(O)c1 (stereo not drawn) [Isochlorogenic acid B, isochlorogenic acid B]	slow eliminate rate		455000 ± 14600 ng·h/mL		52300 ± 3010 ng/mL	0.33 h	16.8 ± 5.09 h	15.2 ± 0.19 h	201000 ± 7210 ng·h/mL	194000 ± 6580 ng·h/mL	25200 ± 1590 ng/mL	0.33 h		10.9 ± 1.04 h	9.68 ± 1.36 h	increased	
O=C(C=Cc1ccc(O)c(O)c1)OC1CC(O)(C(=O)O)CC(O)C1OC(=O)C=Cc1ccc(O)c(O)c1 (stereo not drawn) [Isochlorogenic acid C, isochlorogenic acid C]	slow eliminate rate														20.36 ± 5.22 h	increased	C max (oral H-FF extract 140 g/kg): 28183.80 ± 3739.61 ng/mL; MRT0–t (oral H-FF extract 140 g/kg): 16.42 ± 0.84 h; T max (oral H-FF extract 140 g/kg): 0.33 ± 0.00 h; t 1/2 (oral H-FF extract 140 g/kg): 22.14 ± 9.73 h; C max (oral R-FF extract 140 g/kg): 12916.78 ± 3117.99 ng/mL; MRT0–t (oral R-FF extract 140 g/kg): 14.32 ± 1.56 h; T max (oral R-FF extract 140 g/kg): 0.33 ± 0.00 h
O=C(C=Cc1ccc(O)c(O)c1)OC1CC(O)(C(=O)O)CC(O)C1O (stereo not drawn) [Neochlorogenic acid, neochlorogenic acid]	slow eliminate rate	obvious double peak phenomena	117000 ± 15900 ng·h/mL	95700 ± 6560 ng·h/mL	24700 ± 3220 ng/mL	0.33 h	14.7 ± 3.88 h	10.9 ± 0.44 h	87000 ± 8340 ng·h/mL	56000 ± 4220 ng·h/mL		0.33 h	30.1 ± 6.85 h	12.5 ± 1.19 h			change of T1/2 in H-FF group compared to R-FF group (oral, H-FF vs R-FF): a little shorter
C[C@@H]1O[C@@H](OC[C@H]2O[C@@H](Oc3c(-c4ccc(O)c(O)c4)oc4cc(O)cc(O)c4c3=O)[C@H](O)[C@@H](O)[C@@H]2O)[C@H](O)[C@H](O)[C@H]1O [Rutin, rutin]	slow eliminate rate	obvious double peak phenomena	105000 ± 9980 ng·h/mL	64600 ± 4910 ng·h/mL	7040 ± 429 ng/mL	0.39 ± 0.09 h	14.3 ± 2.28 h	22.7 ± 0.82 h	211000 ± 37900 ng·h/mL	100000 ± 9130 ng·h/mL	7430 ± 446 ng/mL	0.33 h	30.7 ± 14 h	18.91 ± 0.17 h		increased	
